# Results reported in patent US12215106B2, “Pharmaceutical compounds and therapeutic methods” (RUTGERS, THE STATE UNIVERSITY OF NEW JERSEY, priority 2018, dated 2025).
# Counter-ions that a name gives are not always drawn.
# What was measured:
# STAT1 = assay: Western blotting of STAT1 protein levels in GBM spheres; assay type: cell-based, human; conditions: 72 hours
# Procedure: GBM cells were treated with DMSO or different concentrations of the test compounds for 72 hours. Cells were lysed in Cell Lysis Buffer (Cell Signaling, #9803) supplemented with Protease Inhibitor Cocktail (Sigma, #P8340), sonicated briefly while on ice and spun down for 30 minutes at 4° C., after which the supernatant was collected. For each sample, 2 uL of lysate was mixed well into 198 uL de-ionized water. Next, 10 uL of this diluted sample was added to a well in a 96 well plate in quadruplets and mixed with Protein Assay Dye Reagent Concentrate (Bio-Rad, #500-0006) (which was diluted 1:5 with water). BSA standards of 25 ng, 50 ng, 100 ng, 200 ng and 250 ng were also used to the plate and mixed with the reagent. The plate was read in a plate reader at 600 nm and samples were calibrated to the standards to determine the concentration of protein. Using the NuPAGE system (Invitrogen), 25 ug of protein was mixed with NuPAGE LDS 4× Sample Buffer (#NP0007), NuPAGE 10× Reducing Agent (#NP0004) and water, mixed well and heated at 96° C. for 15 minutes to denature the protein. The samples were then loaded into 4-12% Bis-Tris gels (Novex (Invitrogen), #0323) with a protein ladder (Novex (Invitrogen) Sharp Pre-stained protein ladder, #57318) and run at 100-120V for about 2 hours with NuPAGE 20×SDS MES Running Buffer (#NP0002) diluted with water. Next, the gel was taken out and loaded into a NuPAGE transfer cassette with a polyvinylidene membrane with NuPAGE 20× Transfer Buffer (#NP0006-1) diluted with water and methanol. Proteins were transferred for 1 hour at 30V at room temperature. Blocking was performed using the Millipore SNAP i.d. Protein Detection system in 0.25% non-fat dry milk in 0.1% Tween in PBS (PBST). […] Protein signals were detected using ECL Western Blotting Substrate (Pierce, #32106) and filmed. […]
# PD-L1 = assay: Western blotting of PD-L1 levels in GBM spheres; assay type: cell-based, human
# P-gp = assay: Bi-directional Caco-2 transport assay; assay type: in vitro ADME; conditions: human, Caco-2, Efflux Ratio (B-A/A-B)
# Procedure: (§1) The objective of the study is to evaluate test compounds as substrates for efflux transporter using Caco-2 cell line. To assess the functionality of P-glycoprotein (P-gp), loperamide was run as a positive control (Apical and basolateral HBSS pH 7.4).
# (§2) 5 mM DMSO stock of test compounds and loperamide was diluted 1000-folds in HBSS having 0.1% DMSO to prepare concentrations of 5 μM.
# (§3) Caco-2 cells were grown in DMEM (20% FBS) until 85-90% confluence. After attaining required confluence, cells were trypsinized and seeded into 24 well millcell plates at a density of 0.6×10^5 cells/insert. The plates were maintained for 21 days at 37° C. in CO2 incubator with change of medium every alternative day. Monolayer integrity was monitored by measuring Trans-epithelial electrical resistance (TEER) from day 15.
# (§4) Caco-2 cell monolayer was washed twice with HBSS and incubated for 40 min in CO2 incubator. TEER values were measured and wells showing TEER values above 230 ohms·cm^2 were taken for experiments. The study was performed in loperamide and test compounds by adding 400 μL of loperamide prepared in HBSS in apical (A-B transport) followed by addition of 800 μL of HBSS on basal side and for B-A transport 800 μL of loperamide prepared in HBSS was dosed in basal followed by addition of 400 μL HBSS on apical side. At selected time points (0, 15, 30, 60 and 90 mins) an aliquot of 50 μL was collected from the receiver compartment for determination of test compound concentrations. The volume withdrawn was replaced immediately with HBSS buffer. TEER was measured at the end to the experiment to confirm any damage of monolayer while performing experiment. Those wells with TEER not meeting the criteria were excluded from the study.
# (§5) A 50 μL of test compound samples collected at respective time points and submitted for LC-MS/MS analysis.
# (§6) The apparent permeability (Papp) (A−B & B−A) of test compounds and positive control was calculated using the following formula: Papp=dQ/dt/A·Co where, dQ/dt=linear slope of test compound concentration in receptor chamber with time (0, 15, 30, 60 and 90 min) after correcting for dilution; A=area of the filter (0.7 cm^2); and Co=initial concentration of compound in the donor compartment.
# (§7) Efflux ratio (RE) was calculated using the following equation: RE=PB/A/PA/B where PB/A and PA/B represent the apparent permeability of test compound from the basal to apical and apical to basal side of cell monolayer.
# (§8) Recovery represents: (amount of the compound recovered from donor at end of incubation+cumulative amount of compound in acceptor at end of incubation+amount of the compound in cell lysate or assay well)/amount of compound in donor solution at time zero*100
# (§9) Compounds are classified based on Papp values as follows:
# (§10) A compound having efflux ratio of >2 is considered as having potential as a P-gp substrate.
# [1] = Bi-directional Caco-2 transport assay; assay type: in vitro ADME; conditions: human; for Papp at 90 min, 5 μM: Caco-2; for Papp A→B at 90 min, 5 μM / Papp B→A at 90 min, 5 μM: Caco-2, pH 7.4
# Procedure: as §1, §2, §3, §4, §5, §6, §7, §8, §9, §10
# [2] = Toxicity in preclinical mouse models; assay type: in vivo
SMILES,STAT1 protein levels (STAT1),"PDL1 levels (PD-L1; GBM spheres, Western blotting)","efflux ratio at 90 min, 5 μM (P-gp)","Papp at 90 min, 5 μM [1] [×10⁻⁶ cm/s]","Papp A→B at 90 min, 5 μM [1] [×10⁻⁶ cm/s]","Papp B→A at 90 min, 5 μM [1] [×10⁻⁶ cm/s]","PD-L1 levels, time-course (PD-L1; 7-10 nM, time-course of 120 hours)",toxicity in vivo [2]
"[2H]C([2H])([2H])Oc1ccc(Nc2nc(-c3c(C)nc4ccccn34)cs2)cc1 [Compound 15, N-(4-(methoxy-d3)phenyl)-4-(2-methylimidazo[1,2-c]pyridin-3-yl)thiazol-2-amine hydrochloride]",lowered STAT1,,,,,,,
"[2H]C1([2H])Oc2ccc(Nc3nc(-c4c(C)nc5ccccn45)cs3)cc2O1 [Compound 17, N-(benzo[d][1,3]dioxol-5-yl-2,2-d2)-4-(2-methylimidazo[1,2-c]pyridin-3-yl)thiazol-2-amine hydrochloride]",lowered STAT1,increased PDL1,< 2,3 to 15,4.9 ± 0.8,6.4 ± 0.6,,
"COc1c(F)cc(Nc2nc(-c3c(C)nc4ccccn34)cs2)cc1F [Compound 14, hydrochloride]",lowered STAT1,,,,,,modulate of the levels of PD-L1,appear not to have toxicity in vivo
"Cc1nc2ccccn2c1-c1csc(Nc2ccc3c(c2)OC(F)(F)O3)n1 [Compound 16, N-(2,2-difluorobenzo[d][1,3]dioxol-5-yl)-4-(2-methylimidazo[1,2-a]pyridin-3-yl)thiazol-2-amine hydrochloride]",,,,3 to 15,14 ± 3.3,12.1 ± 0.1,,
